From article PMC11134387, “Cancer-Stem-Cell Phenotype-Guided Discovery of a Microbiota-Inspired Synthetic Compound Targeting NPM1 for Leukemia” (JACS Au, 2024)

Legend:
[1] = system: primary HSCs from healthy donors; assay: CD34+ liquid HSC short-term culture, healthy donors; format: cell-based; conditions: Homo sapiens
Experimental: Considering the inhibitory capacity of UCM-13369 on AML cell lines (shown in Figure 3A), the therapeutic potential was assessed in primary CD34+ cells from AML patients. Two ex vivo models were used from AML patients and healthy donors: CD34+ liquid HSC (hematopoietic stem cell) culture as a short-term model and CFU-E (colony-forming unit–erythroid) as a midterm model.
The test compound was diluted in PBS. […]
Primary cells. 1x10^6/mL total mononuclear bone marrow cells (as source of CD34+ HSCs) of healthy donors and AML patients were used. They were cultured using Stem SpanTM supplement with pencillin/streptomycin (500 U/ml), TPO (10 µg/mL), SCF (10 µg/mL), FLT3 (10 µg/mL), IL-6 (10 µg/mL) and IL-3 (10 µg/mL). After 24 h fresh medium was added. After 72 h in maintenance cells were ready to start the assays. All cells wer e maintained at 37 °C in a humidified incubator in an atmosphere of 5% CO2. […]

[2] = system: primary CD34+ cells from AML patients; assay: Flow cytometry CD34-PE/Annexin V-FITC of primary HSCs from AML patients; format: cell-based, human; conditions: 5μM, representative sample
Experimental: The inhibition of NPM1, especially NPM1 C+ pathway (as shown in Figure 4), by UCM-13369 correlates with the increase of apoptosis observed in treated primary CD34+ cells upon staining with Annexin V (Figure 5C).
CFU-E and CD34+ primary cells with and without UCM-13369 treatment were analyzed. The following monoclonal antibodies were used: CD34-PE, Annexin V-FITC (BD Biosciences). The cells were incubated with antibodies in PBS on ice for 15 min in the dark. The analysis of CD34+ and Annexin V+ subpopulation was carried out in a flow cytometer FACSCalibur (Becton Dickinson, Citometría y Microscopía de Fluorescencia core facility, UCM) and the data were processed using FlowJo_V10 software.

[3] = system: NPM1 C+; assay: Confocal microscopy of NPM1 subcellular localization in OCI-AML3 cells; format: cell-based; conditions: OCI-AML3, 10 μM
Experimental: To further elucidate the mechanism of action of UCM-13369, we studied the influence of the compound on the subcellular localization of the protein by confocal microscopy, using an Alexa Fluor-647-conjugated NPM1 primary antibody (Figure 4D).
Cells were plated onto glass coverslips or Greiner Bio-One μClear black 96-well plate (7.5 × 10^4 cells per well) and treated with compound UCM-13369 for 48 h. Then, cells were fixed with 4% paraformaldehyde for 15 min, permeabilized with 0.1% Triton X-100 for 30 min, and blocked in 5% bovine serum albumin for 1 h at rt. Incubation with primary antibodies against NPM1 (7H10B9, NOVUS Biologicals) was carried out overnight at 4 °C. Alexa Fluor-488-conjugated antimouse or antirabbit antibodies (Molecular Probes) were used for detection of the reported proteins by confocal microscopy. Nuclei were counterstained with 4′,6-diamidino-2-phenylindole (DAPI) bath. A total of 35 fields per well were acquired with ×40 magnification lens for those samples run in the Opera HCS system (PerkinElmer). Images were segmented using the DAPI staining and the coefficient of variation of NPM1 intensity per nucleus/cytoplasm was calculated using Definiens Developer XD software.

COc1ccc(C2Cc3[nH]c4ccccc4c3C(CCNCC3CC3)C2N)cc1 (stereo not drawn) [4b, 4-{2-[(Cyclopropylmethyl)amino]ethyl}-2-(4-methoxyphenyl)-2,3,4,9-tetrahydro-1H-carbazol-3-amine]
IC50 [1]: 6.4 µM | CD34+/AnnexinV+ [2]: 43.09% | Subcellular localization of NPM1 (in words) [3]: reduction of the cytoplasmic form of the protein
